# Counter-ions that a name gives are not always drawn.
# Target: adenosine A2A receptor (Homo sapiens, UniProt P29274)
# Assay: A2A receptor agonist assay by the method of L. J. Murphree et al, Molecular Pharmacology 61, 455-462 (2002)
# Type: binding
# Settings: Mol. Pharmacol. 61, 455-462 (2002)
# Source text: Compounds of formula I and their pharmaceutically acceptable salts are useful as pharmaceuticals. In particular, they activate the adenosine A2A receptor, i.e. they act as A2A receptor agonists.
# Sequence of adenosine A2A receptor (P29274 whole entry): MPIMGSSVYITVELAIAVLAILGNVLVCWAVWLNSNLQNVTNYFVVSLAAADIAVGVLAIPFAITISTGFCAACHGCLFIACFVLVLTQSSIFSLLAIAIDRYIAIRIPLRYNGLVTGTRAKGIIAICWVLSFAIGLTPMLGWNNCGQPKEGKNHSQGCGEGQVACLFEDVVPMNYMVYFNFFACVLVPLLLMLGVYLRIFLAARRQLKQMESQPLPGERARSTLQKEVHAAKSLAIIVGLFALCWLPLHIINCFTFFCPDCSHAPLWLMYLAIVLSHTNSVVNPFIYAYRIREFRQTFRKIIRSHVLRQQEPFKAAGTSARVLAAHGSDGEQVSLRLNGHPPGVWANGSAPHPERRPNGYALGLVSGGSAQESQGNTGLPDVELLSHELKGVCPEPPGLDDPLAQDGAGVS
row,Ki [nM],SMILES
1,57,"CCC(=O)N[C@H]1C[C@@H](n2cnc3c(NCC(c4ccccc4)c4ccccc4)nc(Cl)nc32)[C@H](O)[C@@H]1O [Example 4, N-{(1S,2R,3S,4R)-4-[2-chloro-6-(2,2-diphenyl-ethylamino)purin-9-yl]-2,3-dihydroxy-cyclopentyl}-propionamide]"
2,8,"CCCCC#Cc1nc(NCC(c2ccccc2)c2ccccc2)c2ncn(C3CC(NC(=O)CC)C(O)C3O)c2n1 [Example 6, N-{(1S,2R,3S,4R)-4-[6-(2,2-Diphenyl-ethylamino-2-hex-1-ynyl-purin-9-yl]-2,3-dihydroxy-cyclopentyl}-propionamide]"
3,3,"O=C(N[C@H]1C[C@@H](n2cnc3c(NCC(c4ccccc4)c4ccccc4)nc(Cl)nc32)[C@H](O)[C@@H]1O)C1CC1 [Example 12, Cyclopropanecarboxylic acid {(1S,2R,3S,4R)-4-[2-chloro-6-(2,2-diphenyl-ethylamino)-purin-9-yl]-2,3-dihydroxy-cyclopentyl}-amide]"
4,2,"CC(=O)N[C@H]1C[C@@H](n2cnc3c(NCC(c4ccccc4)c4ccccc4)nc(C(=O)NCCNC(=O)NC4CCN(c5ccccn5)CC4)nc32)[C@H](O)[C@@H]1O [Example 42, 9-((1R,2S,3R,4S)-4-acetylamino-2,3-dihydroxy-cyclopentyl)-6-(2,2-diphenyl-ethylamino)-9H-purine-2-carboxylic acid {2-[3-(3,4,5,6-tetra-hydro-2H-[1,2′]bipyridinyl-4-yl)-ureido]-ethyl}-amide trifluoroacetate]"
5,4,"CCC(=O)N[C@H]1C[C@@H](n2cnc3c(NCc4cccc5ccccc45)nc(N4CC[C@@H](NC(=O)N[C@@H]5CCNC5)C4)nc32)[C@H](O)[C@@H]1O [Example 55, N-((1S,2R,3S,4R)-2,3-Dihydroxy-4-{6-[(naphthalen-1-ylmethyl)-amino]-2-[(R)-3-((R)-3-pyrrolidin-3-ylureido)-pyrrolidin-1-yl]-purin-9-yl}-cyclopentyl)-propionamide Trifluoroacetate]"
6,9,"CCC(=O)N[C@H]1C[C@@H](n2cnc3c(NCCC(c4ccccc4)c4ccccc4)nc(NCCc4cn(CC)cn4)nc32)[C@H](O)[C@@H]1O [Example 61, N-{(1S,2R,3S,4R)-4-(6-(3,3-diphenyl-propyl-amino)-2-[2-(1-ethyl-1H-imidazol-4-yl)-ethylamino]-purin-9-yl}-2,3-dihydroxy-cyclopentyl)-propionamide trifluoroacetate]"

# Second part, the molecule before the results:
row,SMILES,Ki [nM]
1,"CS(=O)(=O)N[C@H]1C[C@@H](n2cnc3c(N)nc(Cl)nc32)[C@H](O)[C@@H]1O [Example 1, N-[(1S,2R,3S,4R)-4-(6-Amino-2-chloropurin-9-yl)-2,3-dihydroxy-cyclopentyl]-methane-sulfonamide Trifluoroacetate]",582
2,"CCC(=O)N[C@H]1C[C@@H](n2cnc3c(N)nc(NCCc4ccccc4)nc32)[C@H](O)[C@@H]1O [Example 2, N-[(1S,2R,3S,4R)-4-(6-Amino-2-phenethlamino-purin-9-yl)-2,3-dihydroxy-cyclopentyl]-propionamide trifluoroacetate]",18
3,"CCC(=O)N[C@H]1C[C@@H](n2cnc3c(NC(CC)CC)nc(Cl)nc32)[C@H](O)[C@@H]1O [Example 14, N-{(1S,2R,3S,4R)-4-[2-chloro-6-(1-ethyl-propylamino)-purin-9-yl]-2,3-dihydroxy-cyclopentyl}-propionamide]",690
4,"CCC(=O)N[C@H]1C[C@@H](n2cnc3c(NC(CC)CC)nc(NC4CCC(N)CC4)nc32)[C@H](O)[C@@H]1O (stereo partly drawn) [Example 20, N-{(1S,2R,3 S,4R)-4-[2-(4-Amino-cyclohexylamino)-6-(1-ethyl-propylamino)-purin-9-yl]-2,3-dihydroxy-cyclopentyl}-propionamide]",8
5,"CCC(=O)N[C@H]1C[C@@H](n2cnc3c(NCC(c4ccccc4)c4ccccc4)nc(N4CC[C@@H](NC(=O)N[C@@H]5CCNC5)C4)nc32)[C@H](O)[C@@H]1O [Example 39, N-((1S,2R,3S,4R)-4-4-{6-(2,2-Diphenyl-ethylamino)-2-[(R)-3-((R)-3-pyrrolidin-3-yl)ureido)-pyrrolidin-1-yl]-purin-9-yl}-2,3-dihydroxy-cyclopentyl)-propionamide Trifluoroacetate]",3
